Key:
NCI-H522 = test: NCI-60 panel cell growth screen; format: cell-based, human; settings: NCI-H522 (NSCLC)
p110-γ = p110-γ (Homo sapiens, UniProt P48736); test: Kinase inhibitory profile / PIP3 production
Experimental: To directly assess PI3K activity, PI3K was isolated by immunoprecipitation using an antibody to the p85 adapter subunit and the ability of the co-precipitated catalytic p110 subunit to convert PIP2 to PIP3 in a kinase reaction assessed by measuring the amount of PIP3 generated using a competitive ELISA [40, 41]. […] Lysates were centrifuged at 13,000 × rpm for 10 min and supernatants stored at −80°C. Frozen lysates were thawed and PI3K immunoprecipitated with 5 μl anti-PI3K p85 (Cell Signaling Technology, Danvers, MA) for 1 h at 4°C, followed by the addition of 60 μl of a 50% slurry of Protein A agarose beads for 1 h at 4°C. The immunoprecipitate was collected by centrifugation at 13,000 × rpm for 10 sec, washed 3 times in buffer A + 1% NP40, thrice with 0.1 M Tris-HCl, pH 7.4, 5 mM LiCl, 0.1 mM Na orthovanadate and twice with 10 mM Tris-HCl, pH 7.4, 150 mM NaCl, 5 mM ethylenediaminetetraacetic acid (EDTA), 0.1 mM Na orthovanadate. […] Reactions were incubated for 3 h at 37°C with 40 pmol PIP2 (Echelon Biosciences, Salt Lake City, UT). Reactions were stopped with EDTA (5 mM) and centrifuged at 13,000 × rpm at 4°C. Supernatants were transferred to a microtitre plate for a competitive ELISA (Echelon Biosciences) to quantify PIP3 generated. […] Absorbance was measured (450 nm) and PIP3 quantified using a standard curve generated with experimental samples and plotted on a log scale.

[1] = tested on: peripheral blood mononuclear cells (PBMCs); test: Apoptosis (in situ cell death detection) in PBMCs; format: cell-based; settings: Figure 5B
HCT-15 = test: NCI-60 panel cell growth screen; format: cell-based, human; settings: HCT-15 (Colon cancer)
MM cells [2] = test: Transwell chemotaxis of CFSE-labeled MM cells toward BMSCs; format: cell-based; settings: counted at 72 h
Excerpt: BMSCs induce the migration and homing (chemotaxis) of MM cells to BM. […] MM cells were placed in the upper chamber separated from BMSCs in the lower chamber by a semi-permeable membrane. […] It appears that DT97 treatment prevents MM migration, in part, through the reduction of cytokine production.

mTOR = mTOR (Homo sapiens, UniProt P42345); test: Kinase inhibitory profile; format: biochemical; settings: Class IV PI3Ks; 10-point concentration assays
CXCR12 = test: CXCL12/SDF-1 alpha ELISA, MM cells co-cultured with BMSCs; format: cell-based, human
NCI-H460 = test: NCI-60 panel cell growth screen; format: cell-based, human; settings: NCI-H460 (NSCLC)
IL-6 = IL-6 ELISA, MM cells co-cultured with BMSCs; format: cell-based, human
MM cells [3] = test: XTT viability, MM cells (DT97 vs idelalisib); format: cell-based; settings: parental and drug-resistant MM cells; 1 uM; 72 h; XTT assay
Experimental: Values represent the average of triplicate measurements. […] Values represent the average of triplicate measurements. […] Values represent the average of triplicate measurements.
Cells were plated, treated as indicated for 72 h and 2, 3-bis-(2-methoxy-4-nitro-5-sulfophenyl)-2H-tetrazolium-5-carboxanilide) added (Sigma-Aldrich) after activation with N-methyl dibenzopyrazine methyl sulfate (Sigma-Aldrich). Absorbance was measured and the effect on myeloma viability determined as previously described. Assays were performed in triplicate and the mean and standard deviation determined. Relative cell viability (mean ± SD) was calculated compared to readings from untreated cells.

SNB-75 = test: NCI-60 panel cell growth screen; format: cell-based, human; settings: SNB-75 (CNS Cancer)
MM.1S myeloma cells = test: Mouse xenograft model of myeloma; format: in vivo, mice; settings: subcutaneous myeloma xenograft; intravenous; bortezomib 0.5 mg/kg, DT97 10 mg/kg
Experimental: Five week old nude mice flanks are injected subcutaneously with MM.1S myeloma cells. Tumors formed within two weeks and mice were then treated intravenously with vehicle, bortezomib, DT97 or both bortezomib and DT97.
Subcutaneous tumors were generated after injection of myeloma cells. […] Vehicle or bortezomib was administered on days 1, 4, 8 and 11. Mice were euthanized when tumors reached 2 cm^3, became ulcerated or elicited neurologic or musculoskeletal complications that limited mobility and feeding. Survival and tumor growth were evaluated from the first day of treatment. Shown is the average of replicate measurements. […] Kaplan-Meier survival curves comparison of NOD. SCID mice after subcutaneous injection of parental myeloma cells treated with vehicle, DT97, bortezomib or both.
Mice received intravenous injection of either vehicle (PBS in 10% DMSO); bortezomib (0.5 mg/kg), DT97 (10 mg/kg) or both bortezomib and DT97. Tumor volume (TV) measurements were made using a vernier caliper and calculated using the formula: TV = 0.5 (a × b^2) where a is the long diameter and b the short diameter. Mice were euthanized when tumors reached 2 cm^3, became ulcerated or elicited neurologic or musculoskeletal complications that limited mobility and feeding.
In vivo statistical tests were performed using the 2-tailed Student t test.

AKT = test: Immunoblot of AKT phosphorylation in MM cells; format: cell-based; settings: DT97 500 nm or 1 uM for 48 h
PDGFR = test: Kinase inhibitory profile; format: biochemical; settings: Other Clinically-relevant Kinases; 10-point concentration assays
SF-268 = test: NCI-60 panel cell growth screen; format: cell-based, human; settings: SF-268 (CNS Cancer)
RPMI-8226 = test: NCI-60 panel cell growth screen; format: cell-based, human; settings: RPMI-8226 (Leukemia)
NCI-H226 = test: NCI-60 panel cell growth screen; format: cell-based, human; settings: NCI-H226 (NSCLC)
U25 = test: NCI-60 panel cell growth screen; format: cell-based, human; settings: U25 (CNS Cancer)
SW-620 = test: NCI-60 panel cell growth screen; format: cell-based, human; settings: SW-620 (Colon cancer)
DNA-PK = DNA-PK (Homo sapiens, UniProt P78527); test: Kinase inhibitory profile; format: biochemical; settings: Class IV PI3Ks; 10-point concentration assays
EKVX = test: NCI-60 panel cell growth screen; format: cell-based, human; settings: EKVX (NSCLC)
ERK1/2 = test: Immunoblot of ERK1/2 phosphorylation in MM cells; format: cell-based; settings: DT97 500 nm or 1 uM for 48 h
[4] = read-out: LC50 (the source's name)

Chain of p110-γ (P48736 whole entry): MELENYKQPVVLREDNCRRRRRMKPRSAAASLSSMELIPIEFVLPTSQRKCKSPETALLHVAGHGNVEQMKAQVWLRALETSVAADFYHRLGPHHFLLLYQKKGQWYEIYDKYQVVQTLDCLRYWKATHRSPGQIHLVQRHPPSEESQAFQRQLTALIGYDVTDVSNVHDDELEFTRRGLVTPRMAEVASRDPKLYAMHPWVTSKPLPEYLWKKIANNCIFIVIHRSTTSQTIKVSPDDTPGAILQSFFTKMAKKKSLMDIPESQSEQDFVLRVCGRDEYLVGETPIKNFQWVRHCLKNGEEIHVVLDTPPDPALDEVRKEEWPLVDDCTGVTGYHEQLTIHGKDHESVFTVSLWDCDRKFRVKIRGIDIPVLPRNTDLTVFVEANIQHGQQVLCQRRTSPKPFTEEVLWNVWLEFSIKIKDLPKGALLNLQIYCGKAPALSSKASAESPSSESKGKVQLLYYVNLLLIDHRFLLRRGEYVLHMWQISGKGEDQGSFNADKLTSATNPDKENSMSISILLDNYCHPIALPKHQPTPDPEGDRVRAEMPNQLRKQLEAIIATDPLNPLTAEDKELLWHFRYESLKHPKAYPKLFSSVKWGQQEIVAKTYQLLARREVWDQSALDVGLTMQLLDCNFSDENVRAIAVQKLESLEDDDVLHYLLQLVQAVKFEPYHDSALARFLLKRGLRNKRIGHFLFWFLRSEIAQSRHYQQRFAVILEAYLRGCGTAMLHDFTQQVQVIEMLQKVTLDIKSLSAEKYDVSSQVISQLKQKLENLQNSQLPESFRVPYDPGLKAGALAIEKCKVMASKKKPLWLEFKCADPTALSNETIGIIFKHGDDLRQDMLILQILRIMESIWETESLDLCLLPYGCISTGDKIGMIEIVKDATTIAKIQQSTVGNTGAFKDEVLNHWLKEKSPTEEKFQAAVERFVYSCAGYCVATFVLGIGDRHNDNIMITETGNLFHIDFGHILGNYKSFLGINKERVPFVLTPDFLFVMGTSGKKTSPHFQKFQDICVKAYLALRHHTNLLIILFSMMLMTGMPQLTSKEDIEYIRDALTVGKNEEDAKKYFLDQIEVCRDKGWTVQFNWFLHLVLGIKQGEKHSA

In the case of “N-[4-hydroxy-3-(8-quinolinylthio)-1-naphthyl]benzenesulfonamide [DT97]”, the GI50 (NCI-H522) is reported as 2120 nM, the TGI (NCI-H522) is reported as 8.17E-6 and the “Percent Growth” value (NCI-H522; log concentration −4.0) is reported as −48%. The “Percent Growth” value (NCI-H522; log concentration −5.0) was −7%, the “Percent Growth” value (NCI-H522; log concentration −6.0) was 68% and the “Percent Growth” value (NCI-H522; log concentration −7.0) was 95%. For the same substance, the “Percent Growth” value (NCI-H522; log concentration −8.0) was 95%, the “Inhibitory profile (kinase inhibition)” value (p110-γ; Class I PI3Ks, 10-point concentration assays) was “none” and the “production of PIP3 (dose-dependent effect)” value (p110-γ; p110-γ isoform, Figure 4B) was “no effect”. For the same substance, the apoptosis [1] was “did not induce apoptosis”, the GI50 (HCT-15) was 464 nM and the TGI (HCT-15) was 2.50E-6. For the same substance, the “Percent Growth” value (HCT-15; log concentration −4.0) was −70%, the “Percent Growth” value (HCT-15; log concentration −5.0) was −40% and the “Percent Growth” value (HCT-15; log concentration −6.0) was 27%. For the same substance, the “Percent Growth” value (HCT-15; log concentration −7.0) was 97%, the “Percent Growth” value (HCT-15; log concentration −8.0) was 100% and the CC50 (HCT-15; [4]) was 21200 nM. For the same substance, the “migration of MM cells into the lower chambers with BMSCs” value (MM cells [2]) was “reduced the migration”, the “Inhibitory profile (kinase inhibition)” value (mTOR) was “+” and the “production of CXCR12” value (CXCR12) was “induction was inhibited”. The GI50 (NCI-H460) was 499 nM, the TGI (NCI-H460) was 1.37E-5 and the “Percent Growth” value (NCI-H460; log concentration −4.0) was −48%. The “Percent Growth” value (NCI-H460; log concentration −5.0) was 7%, the “Percent Growth” value (NCI-H460; log concentration −6.0) was 29% and the “Percent Growth” value (NCI-H460; log concentration −7.0) was 98%. The “Percent Growth” value (NCI-H460; log concentration −8.0) was 101%, the “production of Il-6” value (IL-6) was “induction was inhibited” and the viability (MM cells [3]) was “more potently than idelalisib”. The GI50 (SNB-75) was 3230 nM, the TGI (SNB-75) was 1.69E-5 and the “Percent Growth” value (SNB-75; log concentration −4.0) was −100%. For the same substance, the “Percent Growth” value (SNB-75; log concentration −5.0) was 29%, the “Percent Growth” value (SNB-75; log concentration −6.0) was 75% and the “Percent Growth” value (SNB-75; log concentration −7.0) was 73%. The “Percent Growth” value (SNB-75; log concentration −8.0) was 76%, the CC50 (SNB-75; [4]) was 41200 nM and the “overall survival (OS)” value (MM.1S myeloma cells) was 16 days. For the same substance, the “phosphorylation of AKT at Ser308/Thr473” value (AKT) was “reduced the phosphorylation”, the “Inhibitory profile (kinase inhibition)” value (PDGFR) was “none” and the GI50 (SF-268) was 1480 nM. For the same substance, the TGI (SF-268) was 1.28E-5, the “Percent Growth” value (SF-268; log concentration −4.0) was −68% and the “Percent Growth” value (SF-268; log concentration −5.0) was 8%. The “Percent Growth” value (SF-268; log concentration −6.0) was 59%, the “Percent Growth” value (SF-268; log concentration −7.0) was 100% and the “Percent Growth” value (SF-268; log concentration −8.0) was 98%. For the same substance, the CC50 (SF-268; [4]) was 57700 nM, the GI50 (RPMI-8226) was 2380 nM and the TGI (RPMI-8226) was 7.90E-6. For the same substance, the “Percent Growth” value (RPMI-8226; log concentration −4.0) was −9%, the “Percent Growth” value (RPMI-8226; log concentration −5.0) was −10% and the “Percent Growth” value (RPMI-8226; log concentration −6.0) was 86%. The “Percent Growth” value (RPMI-8226; log concentration −7.0) was 92%, the “Percent Growth” value (RPMI-8226; log concentration −8.0) was 101% and the CC50 (RPMI-8226; [4]) was greater than 100000 nM. The GI50 (NCI-H226) was 2450 nM, the TGI (NCI-H226) was 2.54E-5 and the “Percent Growth” value (NCI-H226; log concentration −4.0) was −40%. The “Percent Growth” value (NCI-H226; log concentration −5.0) was 27%, the “Percent Growth” value (NCI-H226; log concentration −6.0) was 65% and the “Percent Growth” value (NCI-H226; log concentration −7.0) was 94%. For the same substance, the “Percent Growth” value (NCI-H226; log concentration −8.0) was 92%, the GI50 (U25) was 780 nM and the TGI (U25) was 2.42E-5. The “Percent Growth” value (U25; log concentration −4.0) was −13%, the “Percent Growth” value (U25; log concentration −5.0) was 8% and the “Percent Growth” value (U25; log concentration −6.0) was 43%. The “Percent Growth” value (U25; log concentration −7.0) was 107%, the “Percent Growth” value (U25; log concentration −8.0) was 103% and the CC50 (U25; [4]) was greater than 100000 nM. The GI50 (SW-620) was 1040 nM, the TGI (SW-620) was 1.16E-5 and the “Percent Growth” value (SW-620; log concentration −4.0) was −49%. For the same substance, the “Percent Growth” value (SW-620; log concentration −5.0) was 3%, the “Percent Growth” value (SW-620; log concentration −6.0) was 51% and the “Percent Growth” value (SW-620; log concentration −7.0) was 88%. The “Percent Growth” value (SW-620; log concentration −8.0) was 94%, the CC50 (SW-620; [4]) was greater than 100000 nM and the “Inhibitory profile (kinase inhibition)” value (DNA-PK) was “+”. The GI50 (EKVX) was 1010 nM, the TGI (EKVX) was 8.55E-6 and the “Percent Growth” value (EKVX; log concentration −4.0) was −99%. The “Percent Growth” value (EKVX; log concentration −5.0) was −4%, the “Percent Growth” value (EKVX; log concentration −6.0) was 50% and the “Percent Growth” value (EKVX; log concentration −7.0) was 93%. The “Percent Growth” value (EKVX; log concentration −8.0) was 97% and the “phosphorylation of ERK1/2 at Thre202/Tyr-204” value (ERK1/2) was “reduced the phosphorylation”.

— paper PMC5122408, “High throughput chemical library screening identifies a novel p110-δ inhibitor that potentiates the anti-myeloma effect of bortezomib” (Oncotarget, 2016)
